# Test results published in patent US20220409775A1, “INJECTABLE HYDROGEL COMPOSITION HAVING ENDOGENOUS PROGENITOR OR STEM CELL RECRUITMENT AND INDUCTION OF VASCULAR DIFFERENTIATION OF RECRUITED CELLS” (Ajou University Industry-Academic Cooperation Foundation, priority 2019, published 2022).
# What was measured:
# [1] = tested on: human-derived mesenchymal stem cells (hMSCs); experiment: SP's ability to recruit stem cells (trans well migration); assay type: cell-based
# Protocol: First, human-derived mesenchymal stem cells (hMSCs) were labeled with PKH 26 dye (Sigma, USA) and then dispensed in the upper chamber (8.0 μm pore size) of a 24-well trans well plate (SPL, Korea) to be 5×10^4 cells. After culturing in the upper chamber for 48 hours using serum-free DMEM (Dubelco's modified eagle medium, Gibco, USA) medium, DMEM containing 1 μg/mL SP and 1% FBS (fetal bovine serum, Gibco, USA) was added to the bottom well, and the medium was replaced every 3 days, and the hMSCs that migrated to the bottom well were observed using a fluorescence microscope (Olympus, Japan). As a control group, DMEM (including 1% FBS) without SP was added to the bottom well and observed.
# [2] = In vitro release of stem cell recruitment factor (SP) and VP from hydrogels; assay type: physicochemical; details: physiological saline, 37° C., 100 rpm, 28 days; CHHA+SP and CHHA-VP+SP hydrogels
# Protocol: First, an HA+VP solution was prepared by simply mixing VP with the HA solution prepared in Example 3 at a concentration of 320 μg/mL, and SP, which is a stem cell recruitment factor, was mixed with each of the HA solution and HA-VP solution at a concentration of 2 μg/mL to prepare an HA+SP solution and HA−VP+SP solution, respectively.
# Next, 100 μL of the CH solution and 100 μL of the HA+VP solution were mixed in a vial to prepare 200 μL of a CHHA+VP hydrogel, and 100 μL of the CH solution and 100 μL of the HA-VP solution were mixed in a vial to prepare 200 μL of a CHHA-VP hydrogel.
# In addition, 100 μL of the CH solution and 100 μL of HA+SP solution were mixed in a vial to prepare 200 μL of a CHHA+SP hydrogel, and 100 μL of the CH solution and 100 μL of the HA-VP+SP solution were mixed in a vial to prepare 200 μL of a CHHA-VP+SP hydrogel.
# 3 mL of a physiological saline was placed in each vial and stored in an incubator at 100 rpm and 37° C., and after taking 1 mL of the physiological saline from the vial at a predetermined time, 1 mL of a new physiological saline was added to the vial, and it was carried it out for 28 days to conduct a release experiment.
# [3] = 1 μg/mL SP in bottom well, DMEM with 1% FBS
substance,measurement,setting,value
Substance P [SP],Migration rate of hMSC,[1]; [3],1.9 × 10^3 cells/day
same,Rate constant,[1]; [3],-0.49 day⁻¹
same,cells migrated to the lower side,[1]; SP present compared with SP absent,more cells migrated to the lower side
same,Relative migration rate,[1]; SP relative to Cont (no SP),1.7
same,release of SP from hydrogel,[2],release of SP occurred regardless of the chemical introduction of VP
